Reference: US12173007B2, “Imidazopyridazine IL-17 inhibitor compounds” (Janssen Pharmaceutica NV, priority 2021, dated 2024)

Tests used:
[1] = target: T1, IL-17A(FLAG-Tagged): IL-17RA(His-Tagged) binding (Homo sapiens, UniProt Q16552, K93Q); assay: IL-17A(FLAG-tagged):IL-17RA(His-tagged) binding disruption Eu-HTRF assay, Protocol 1; conditions: FLAG-IL-17A 2.5 nM; average if tested more than once
Description: IL-17A(FLAG-Tagged): IL-17RA(His-Tagged) Binding Disruption Eu-HTRF Assay
An antibody directed against the FLAG tag of IL-17A (SEQ ID NO: 1) is labeled with the HTRF donor chromophore (Europium-cryptate). IL-17A is present as a dimer that is “locked into” this quaternary structure due to the formation of loop-spanning […] disulfide bridges. The construct of IL-17RA used in the assay excludes the […] portion of the receptor and is fused to a C-terminal 10×His tag (SEQ ID NO:2). An antibody directed against the His tag of the IL-17RA chimera is labeled with the HTRF acceptor chromophore (“D2”). The fluorescence-resonance energy transfer (FRET) depends on the vicinity of the donor chromophore to the acceptor, and interruption of the binding between the IL-17A and IL-17RA causes the reduction/loss of FRET. Therefore, this assay allows to evaluate the compound effect on the binding IL-17A and IL-17RA by monitoring the fluorescence intensity of donor vs acceptor. The assay was run using either Protocol 1 or Protocol 2 as described below.
Protocol 1. 40 nl of 2-fold serial diluted compound solution for total 22 dilution points is added into each well of a 1536-well, white, low-volume, non-binding plate (Greiner #782904), then 2 μl of FLAG tagged IL-17A at 2×final concentration (2.5 nM) in solution of PBS+0.01% Triton-X100 is added to each well. The assay plate is briefly centrifuged then incubated for 1 h at rt. A mixed solution is prepared containing 2×5 nM 10HIS×IL-17RA, 2×2.5 nM Eu-anti-FLAG (CISBIO), 2×5 nM D2-anti-HIS (CISBIO) in PBS+0.01% Triton-X100+200 mM Potassium Fluoride (Sigma 60238) and 2 μl of mix is added to each well of the assay plate. The plate is briefly centrifuged then incubated for 2 h at rt. The HTRF intensities at the wavelength of donor (620 nm) and acceptor (665 nm) are measured using BMG Pherastar. The ratio between intensities at two wavelengths is calculated and plotted against the compound concentration and the data is fitted to a one-site competition model to yield IC50 of the compound.

[2] = target: T1, IL-17A(FLAG-Tagged): IL-17RA(His-Tagged) binding; assay: IL-17A(FLAG-tagged):IL-17RA(His-tagged) binding disruption Eu-HTRF assay, Protocol 2; conditions: FLAG-IL-17A 1 nM; average if tested more than once
Procedure, shortened: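 FLAG-tagged IL-17A (1 nM final) was preincubated with compound (2-fold serial dilutions, 22 points) for 1 h at rt in PBS + 0.01% Triton X-100. 10×His-IL-17RA, Eu-anti-FLAG and D2-anti-His in buffer containing KF were then added for 2 h at rt. IC50 came from the 665/615 nm HTRF ratio fitted to a one-site competition model.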

[3] = system: IL-17A-induced G-CSF production in human normal keratinocyte (NHK); assay: NHK assay: IL-17A-induced G-CSF production in normal human keratinocytes; format: cell-based; conditions: 24 h, IL-17A 5 ng/mL, G-CSF by HTRF, average if tested more than once
Procedure, shortened: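 IC50 derives from G-CSF in supernatants, quantified by HTRF from a standard curve, with CellTiter-Glo viability compared to DMSO control. Before a 24 h, 37°C culture of normal human keratinocytes at 3000–4000 cells/well, compound dilutions were preincubated 1 h at rt with human IL-17A (5 ng/mL final), with 0.2% DMSO and 5% FBS.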

T1 sequence (Q16552 with tags, fused parts or gaps K93Q): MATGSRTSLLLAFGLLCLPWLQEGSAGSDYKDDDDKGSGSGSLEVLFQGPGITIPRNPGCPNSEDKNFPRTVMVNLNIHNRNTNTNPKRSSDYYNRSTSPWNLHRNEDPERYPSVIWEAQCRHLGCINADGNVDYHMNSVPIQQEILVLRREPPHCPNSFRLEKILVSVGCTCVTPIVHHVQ

| SMILES | IC50 [1] | IC50 [2] | IC50 ([3]; Homo sapiens, Keratinocyte) | IC50 [3] |
| --- | --- | --- | --- | --- |
| COC[C@H](c1cnn2cc([C@@H](NC(=O)c3nonc3C3CC3)C3CCC(F)(F)CC3)nc2c1)N1CC(F)(F)CNC1=O [Example 11, 4-Cyclopropyl-N—((S)-(7-((S)-1-(5,5-difluoro-2-oxotetrahydropyrimidin-1(2H)-yl)-2-methoxyethyl)imidazo[1,2-b]pyridazin-2-yl)(4,4-difluorocyclohexyl)methyl)-1,2,5-oxadiazole-3-carboxamide] | < 50 nM | < 50 nM | < 50 nM | – |
| CC(c1cnn2cc([C@@H](NC(=O)c3nonc3C3CC3)C3CCC(F)(F)CC3)nc2c1)N1CC(F)(F)CNC1=O (single isomer, unassigned) [Example 92, 4-Cyclopropyl-N—((S)-(7-((S*)-1-(5,5-difluoro-2-oxotetrahydropyrimidin-1(2H)-yl)ethyl)imidazo[1,2-b]pyridazin-2-yl)(4,4-difluorocyclohexyl)methyl)-1,2,5-oxadiazole-3-carboxamide] | > 100 nM | – | > 100 nM | – |
| Cc1nonc1C(=O)N[C@H](c1cn2ncc(C(C)N3CC(F)(F)CNC3=O)cc2n1)C1CCC(F)(F)CC1 (single isomer, unassigned) [Example 93, N—((S)-(7-((S*)-1-(5,5-Difluoro-2-oxotetrahydropyrimidin-1(2H)-yl)ethyl)imidazo[1,2-b]pyridazin-2-yl)(4,4-difluorocyclohexyl)methyl)-4-methyl-1,2,5-oxadiazole-3-carboxamide] | > 100 nM | – | > 100 nM | – |
| O=C(N[C@H](c1cn2ncc(CN3CC(C(F)(F)F)CNC3=O)cc2n1)C1CCC(F)(F)CC1)c1nonc1C1CC1 (single isomer, unassigned) [Example 5, 4-Cyclopropyl-N—((S)-(4,4-difluorocyclohexyl)(7-(((S*)-2-oxo-5-(trifluoromethyl)tetrahydropyrimidin-1(2H)-yl)methyl)imidazo[1,2-b]pyridazin-2-yl)methyl)-1,2,5-oxadiazole-3-carboxamide] | < 50 nM | – | – | 50 to 100 nM |
| CC1CNC(=O)N(Cc2cnn3cc([C@@H](NC(=O)c4nonc4C4CC4)C4CCC(F)(F)CC4)nc3c2)C1 (single isomer, unassigned) [Example 29, 4-Cyclopropyl-N—((S)-(4,4-difluorocyclohexyl)(7-(((R*)-5-methyl-2-oxotetrahydropyrimidin-1(2H)-yl)methyl)imidazo[1,2-b]pyridazin-2-yl)methyl)-1,2,5-oxadiazole-3-carboxamide] | > 100 nM | – | – | > 100 nM |
| O=C(N[C@H](c1cn2ncc([C@@H](C3CC3)N3CC(F)(F)CNC3=O)cc2n1)C1CCC(F)(F)CC1)c1nonc1C1CC1 [Example 7, 4-Cyclopropyl-N—((S)-(7-((R)-cyclopropyl(5,5-difluoro-2-oxotetrahydropyrimidin-1(2H)-yl)methyl)imidazo[1,2-b]pyridazin-2-yl)(4,4-difluorocyclohexyl)methyl)-1,2,5-oxadiazole-3-carboxamide] | < 50 nM | – | < 50 nM | – |
| COCC(c1cnn2cc([C@H](COC(C)(C)C(F)(F)F)NC(=O)c3nonc3C)nc2c1)N1CC(F)(F)CNC1=O (single isomer, unassigned) [Example 15, N—((R)-1-(7-((S*)-1-(5,5-Difluoro-2-oxotetrahydropyrimidin-1(2H)-yl)-2-methoxyethyl)imidazo[1,2-b]pyridazin-2-yl)-2-((1,1,1-trifluoro-2-methylpropan-2-yl)oxy)ethyl)-4-methyl-1,2,5-oxadiazole-3-carboxamide] | < 50 nM | – | < 50 nM | – |
| COC[C@H](c1cnn2cc([C@@H](NC(=O)c3ccnn3C(C)C)C3CCC(F)(F)CC3)nc2c1)N1CC(F)(F)CNC1=O [Example 14, N—((S)-(7-((S)-1-(5,5-Difluoro-2-oxotetrahydropyrimidin-1(2H)-yl)-2-methoxyethyl)imidazo[1,2-b]pyridazin-2-yl)(4,4-difluorocyclohexyl)methyl)-1-isopropyl-1H-pyrazole-5-carboxamide] | 50 to 100 nM | – | < 50 nM | – |
| CC(C)n1nccc1C(=O)N[C@H](c1cn2ncc(CN3CCCCNC3=O)cc2n1)C1CCC(F)(F)CC1 [Example 31, (S)—N-((4,4-Difluorocyclohexyl)(7-((2-oxo-1,3-diazepan-1-yl)methyl)imidazo[1,2-b]pyridazin-2-yl)methyl)-1-isopropyl-1H-pyrazole-5-carboxamide] | > 100 nM | – | > 100 nM | – |
| CC(C)n1nccc1C(=O)N[C@H](c1cn2ncc(CN3CC(C)(C)CNC3=O)cc2n1)C1CCC(F)(F)CC1 [Example 34, (S)—N-((4,4-Difluorocyclohexyl)(7-((5,5-dimethyl-2-oxotetrahydropyrimidin-1(2H)-yl)methyl)imidazo[1,2-b]pyridazin-2-yl)methyl)-1-isopropyl-1H-pyrazole-5-carboxamide] | > 100 nM | – | > 100 nM | – |
| N#CC1([C@H](c2cnn3cc([C@@H](NC(=O)c4nonc4C4CC4)C4CCC(F)(F)CC4)nc3c2)N2CC(F)(F)CNC2=O)CCC1 [Example 85, N—((S)-(7-((S)-(1-Cyanocyclobutyl)(5,5-difluoro-2-oxotetrahydropyrimidin-1(2H)-yl)methyl)imidazo[1,2-b]pyridazin-2-yl)(4,4-difluorocyclohexyl)methyl)-4-cyclopropyl-1,2,5-oxadiazole-3-carboxamide] | < 50 nM | – | > 100 nM | – |
| [2H]C([2H])([2H])C([2H])([2H])n1nccc1C(=O)N[C@H](c1cn2ncc(CN3CC(F)(F)CNC3=O)cc2n1)C1CCC(F)(F)CC1 [Example 25, (S)—N-((7-((5,5-Difluoro-2-oxotetrahydropyrimidin-1(2H)-yl)methyl)imidazo[1,2-b]pyridazin-2-yl)(4,4-difluorocyclohexyl)methyl)-1-(ethyl-d5)-1H-pyrazole-5-carboxamide] | 50 to 100 nM | – | < 50 nM | – |
| CC1CNC(=O)N(Cc2cnn3cc([C@@H](NC(=O)c4nonc4C4CC4)C4CCC(F)(F)CC4)nc3c2)C1 (single isomer, unassigned) [Example 28, 4-Cyclopropyl-N—((S)-(4,4-difluorocyclohexyl)(7-(((S*)-5-methyl-2-oxotetrahydropyrimidin-1(2H)-yl)methyl)imidazo[1,2-b]pyridazin-2-yl)methyl)-1,2,5-oxadiazole-3-carboxamide] | < 50 nM | – | > 100 nM | – |
| Cc1nonc1C(=O)N[C@H](c1cn2ncc(CN3CC(C)(C)CNC3=O)cc2n1)C1CCC(F)(F)CC1 [Example 32, (S)—N-((4,4-Difluorocyclohexyl)(7-((5,5-dimethyl-2-oxotetrahydropyrimidin-1(2H)-yl)methyl)imidazo[1,2-b]pyridazin-2-yl)methyl)-4-methyl-1,2,5-oxadiazole-3-carboxamide] | > 100 nM | – | > 100 nM | – |
| CC1CCCN(Cc2cnn3cc([C@@H](NC(=O)c4nonc4C4CC4)C4CCC(F)(F)CC4)nc3c2)C(=O)N1 (single isomer, unassigned) [Example 97, 4-Cyclopropyl-N—((S)-(4,4-difluorocyclohexyl)(7-(((S*)-4-methyl-2-oxo-1,3-diazepan-1-yl)methyl)imidazo[1,2-b]pyridazin-2-yl)methyl)-1,2,5-oxadiazole-3-carboxamide] | 50 to 100 nM | – | – | > 100 nM |
| O=C(N[C@H](c1cn2ncc(CN3CCCCNC3=O)cc2n1)C1CCC(F)(F)CC1)c1nonc1C1CC1 [Example 30, (S)-4-Cyclopropyl-N-((4,4-difluorocyclohexyl)(7-((2-oxo-1,3-diazepan-1-yl)methyl)imidazo[1,2-b]pyridazin-2-yl)methyl)-1,2,5-oxadiazole-3-carboxamide] | 50 to 100 nM | – | > 100 nM | – |
